According to article PMC8968952, “Modulation of ERCC1-XPF Heterodimerization Inhibition via Structural Modification of Small Molecule Inhibitor Side-Chains” (Frontiers in Oncology, 2022):

What was measured:
CYP2C9 = CYP2C9 (Homo sapiens, UniProt P11712); design: method as in PMID 31369707; conditions: read-out: Inhibition of cytochrome P450 (IC50) CYP2C9; cited from earlier work
HCT-116 cells [1] = test system: HCT-116 cells; design: method as in PMID 31369707; conditions: 2 μM, after 24 hours; cited from earlier work
[2] = biological target: T1, ERCC1-XPF heterodimer in A549 cells (Homo sapiens, UniProt Q92889); design: method as in PMID 33399940; conditions: A549 cells treated with 20 μM cisplatin and 1 μM inhibitor; cited from earlier work
T1 construct: endogenous in cells; host or cells: A549
T1 sequence (Q92889 1-916): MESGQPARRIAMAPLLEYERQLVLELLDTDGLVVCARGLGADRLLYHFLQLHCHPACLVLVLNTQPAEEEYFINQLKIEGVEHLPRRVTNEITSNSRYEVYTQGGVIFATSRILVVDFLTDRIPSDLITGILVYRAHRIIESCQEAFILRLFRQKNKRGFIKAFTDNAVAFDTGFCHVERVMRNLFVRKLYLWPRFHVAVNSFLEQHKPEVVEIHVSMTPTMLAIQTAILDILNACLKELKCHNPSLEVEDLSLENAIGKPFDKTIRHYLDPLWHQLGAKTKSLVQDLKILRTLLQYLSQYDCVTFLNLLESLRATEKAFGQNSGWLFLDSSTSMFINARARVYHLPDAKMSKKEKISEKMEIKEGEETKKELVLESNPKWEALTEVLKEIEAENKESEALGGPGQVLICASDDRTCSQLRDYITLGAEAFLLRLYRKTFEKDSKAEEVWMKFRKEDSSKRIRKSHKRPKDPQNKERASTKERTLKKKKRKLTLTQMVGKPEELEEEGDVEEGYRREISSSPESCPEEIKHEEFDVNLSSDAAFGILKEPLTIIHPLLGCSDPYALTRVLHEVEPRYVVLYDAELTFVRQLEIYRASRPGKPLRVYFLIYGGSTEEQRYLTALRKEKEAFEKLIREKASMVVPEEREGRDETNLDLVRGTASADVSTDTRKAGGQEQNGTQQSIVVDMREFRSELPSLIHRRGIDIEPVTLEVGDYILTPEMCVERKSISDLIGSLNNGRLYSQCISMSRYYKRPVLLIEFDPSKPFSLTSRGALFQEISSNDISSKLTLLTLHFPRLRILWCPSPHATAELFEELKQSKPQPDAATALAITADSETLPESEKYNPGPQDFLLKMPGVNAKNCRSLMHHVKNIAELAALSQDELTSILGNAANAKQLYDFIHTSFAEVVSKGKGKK

CYP2C19 = CYP2C19 (Homo sapiens, UniProt P33261); design: method as in PMID 31369707; conditions: read-out: Inhibition of cytochrome P450 (IC50) CYP2C19; cited from earlier work
[3] = design: method as in PMID 31369707; conditions: cited from earlier work
[4] = design: method as in PMID 31369707; conditions: cited from earlier work; remark: listed apart in the source
CYP2D6 = CYP2D6 (Homo sapiens, UniProt P10635); design: method as in PMID 31369707; conditions: read-out: Inhibition of cytochrome P450 (IC50) CYP2D6; cited from earlier work
CYP3A4-M = CYP3A4-M (Homo sapiens, UniProt P08684); design: method as in PMID 31369707; conditions: read-out: Inhibition of cytochrome P450 (IC50) CYP3A4-M; cited from earlier work
[5] = test system: ERCC1 or XPF levels in A549 cells; assay: Western blot of ERCC1 and XPF protein levels (PLA control); type: cell-based, human; conditions: 2 µM, 24 h
Description: page 1: Supplementary Material […] Supplementary Figure 1. ERCC1-XPF mediated cleavage of the stem-loop DNA substrate, in which the FAM signal is quenched, releases the fluorescently tagged octanucleotide. Triplicate measurements of the control (DMSO) and the effect of 10 μM of compounds 4 and 6 on the incision activity is shown. 2 PLA Control Experiments Supplementary Figure 2. A549 cells were seeded in 6-well culture dishes (Thermo Fishes Scientific) at a density of 0.3 X 10^6 cells/well in a final volume of 3 ml. […] The chambers were incubated for 24 h and then washed with PBS and the cells were solubilized with RIPA buffer in the presence of protease inhibitor cocktail (Cell Signaling Technology) plus 2 mM EDTA. […] EpiGentek), XPF (LS- C173159, 1:1000; LifeSpan BioSciences, Seattle, WA) and B-Actin (sc-47778, 1:1000; Santa Cruz) primary antibodies followed by secondary anti-mouse or anti-rabbit secondary HRP-conjugated secondary antibodies. ECL chemiluminescent substrate (Promega) was used to detect the proteins. 3 Cytotoxicity Analysis Supplementary Figure 3. Cytotoxicity assay using colony forming assay 4 HCT-116 Derived XPF Knockout Cells For CRISPR deletion of XPF from HCT-116 cells, the pSpCas9(BB)-2A-GFP (pX458) vector (Addgene plasmid # 48138) was used. The short guide sequence to target XPF exon one was: 5'- [NT] 3' and target XPF exon eight was: 5'- [NT]3'. […]

HCT-116 cells [6] = test system: HCT-116 cells; design: method as in PMID 31369707; conditions: 1.0 μM compound, 4 J/m^2 UVC; cited from earlier work
HCT-116 cells [7] = test system: HCT-116 cells; design: method as in PMID 31369707; conditions: 1 μM compound, 50 μM cyclophosphamide; cited from earlier work

Sequence of CYP3A4-M (P08684 whole entry): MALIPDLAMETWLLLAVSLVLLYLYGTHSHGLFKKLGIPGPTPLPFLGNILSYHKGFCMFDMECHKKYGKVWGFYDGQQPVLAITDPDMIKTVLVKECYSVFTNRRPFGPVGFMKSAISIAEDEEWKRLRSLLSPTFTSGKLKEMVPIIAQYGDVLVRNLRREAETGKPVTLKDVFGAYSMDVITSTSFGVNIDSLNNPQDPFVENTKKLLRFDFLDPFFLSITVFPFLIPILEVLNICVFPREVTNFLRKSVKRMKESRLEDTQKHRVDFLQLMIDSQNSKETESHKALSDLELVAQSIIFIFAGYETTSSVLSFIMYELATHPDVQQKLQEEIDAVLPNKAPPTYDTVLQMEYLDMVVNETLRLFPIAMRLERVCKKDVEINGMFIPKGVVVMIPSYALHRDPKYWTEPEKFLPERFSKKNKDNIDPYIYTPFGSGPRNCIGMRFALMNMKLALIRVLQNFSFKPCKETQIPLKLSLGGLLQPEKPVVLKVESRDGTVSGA
Sequence of CYP2C9 (P11712 whole entry): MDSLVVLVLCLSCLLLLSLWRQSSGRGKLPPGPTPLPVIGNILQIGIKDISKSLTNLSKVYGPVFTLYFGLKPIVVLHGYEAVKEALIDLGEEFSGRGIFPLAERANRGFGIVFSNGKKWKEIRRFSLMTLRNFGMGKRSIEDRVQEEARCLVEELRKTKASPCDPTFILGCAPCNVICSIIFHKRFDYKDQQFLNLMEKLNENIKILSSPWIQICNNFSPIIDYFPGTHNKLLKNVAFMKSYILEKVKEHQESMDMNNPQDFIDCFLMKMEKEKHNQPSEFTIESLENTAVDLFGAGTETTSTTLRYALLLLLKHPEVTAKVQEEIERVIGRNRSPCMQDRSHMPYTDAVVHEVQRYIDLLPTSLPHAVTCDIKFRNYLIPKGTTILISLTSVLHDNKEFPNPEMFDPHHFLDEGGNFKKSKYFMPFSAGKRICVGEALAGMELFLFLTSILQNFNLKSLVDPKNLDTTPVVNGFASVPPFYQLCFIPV
Sequence of CYP2C19 (P33261 whole entry): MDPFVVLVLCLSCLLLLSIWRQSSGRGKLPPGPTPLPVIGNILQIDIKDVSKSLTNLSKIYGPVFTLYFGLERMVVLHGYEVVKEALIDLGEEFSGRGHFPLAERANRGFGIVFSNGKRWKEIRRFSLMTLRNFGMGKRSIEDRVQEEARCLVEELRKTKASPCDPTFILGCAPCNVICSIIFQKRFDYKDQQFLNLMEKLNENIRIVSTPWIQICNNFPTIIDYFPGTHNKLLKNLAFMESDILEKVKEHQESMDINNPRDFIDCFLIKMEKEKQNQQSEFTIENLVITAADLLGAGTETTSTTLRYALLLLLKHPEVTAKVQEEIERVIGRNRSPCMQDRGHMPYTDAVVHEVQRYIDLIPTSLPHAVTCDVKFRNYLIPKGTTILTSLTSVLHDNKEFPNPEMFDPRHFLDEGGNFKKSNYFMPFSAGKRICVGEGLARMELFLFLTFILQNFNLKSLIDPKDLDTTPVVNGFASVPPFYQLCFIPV
Sequence of CYP2D6 (P10635 whole entry): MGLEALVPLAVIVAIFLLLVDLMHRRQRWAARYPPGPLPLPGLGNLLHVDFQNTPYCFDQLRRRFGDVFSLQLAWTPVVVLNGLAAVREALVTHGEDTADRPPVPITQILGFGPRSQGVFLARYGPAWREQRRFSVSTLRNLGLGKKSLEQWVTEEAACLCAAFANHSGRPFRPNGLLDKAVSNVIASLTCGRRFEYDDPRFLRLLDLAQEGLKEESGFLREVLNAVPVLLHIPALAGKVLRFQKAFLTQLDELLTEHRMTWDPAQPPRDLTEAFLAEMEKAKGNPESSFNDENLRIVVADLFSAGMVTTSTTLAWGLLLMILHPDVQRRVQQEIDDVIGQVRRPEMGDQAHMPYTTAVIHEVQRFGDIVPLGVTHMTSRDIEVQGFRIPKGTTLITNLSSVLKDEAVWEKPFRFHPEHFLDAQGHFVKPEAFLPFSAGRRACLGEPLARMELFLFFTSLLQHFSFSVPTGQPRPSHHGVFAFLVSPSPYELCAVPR

In the case of COc1ccc2nc3cc(Cl)ccc3c(Nc3ccc(O)c(CN4CCN(CCN(C)C)CC4)c3)c2c1 [Compound 4], the IC50 (CYP2C9) is listed as > 50 µM, the CPD removal (HCT-116 cells [1]) is listed as 60% and the “PLA: inhibition of the interaction between ERCC1 and XPF (in words)” value [2] is listed as “clear inhibition of the interaction between ERCC1 and XPF”. The IC50 (CYP2C19) was > 50 µM, the “Metabolic stability in cryopreserved human hepatocytes (clearance)” value [3] was 2.93 L/h/kg and the “Metabolic stability in cryopreserved human hepatocytes T1/2” value [3] was 1.32 h. The “Metabolic stability in human liver microsomes (clearance)” value [4] was 44.0 (mL/min/kg), the IC50 (CYP2D6) was 16 µM and the IC50 (CYP3A4-M) was 37.1 µM. For the same compound, the “levels of ERCC1 or XPF vs untreated cells” value [5] was “no significant differences”, the “cell survival after UVC” value (HCT-116 cells [6]) was ~ 50% and the “cell survival with cyclophosphamide” value (HCT-116 cells [7]) was “about 75%”.
